The record followed here is patent US9902739B2, “Small molecule inhibitors of G protein coupled receptor 6 kinases polypeptides” (Mayo Foundation for Medical Education and Research, priority 2014, dated 2018).

Each structure is given as a SMILES string.

One assay deals with T1, GRK6, recombinant full-length GST-tagged human protein (Homo sapiens, UniProt P43250).
T1 construct: Enzyme: 20 nM GRK6, recombinant full-length GST-tagged human protein; GST
T1 sequence (P43250 whole entry): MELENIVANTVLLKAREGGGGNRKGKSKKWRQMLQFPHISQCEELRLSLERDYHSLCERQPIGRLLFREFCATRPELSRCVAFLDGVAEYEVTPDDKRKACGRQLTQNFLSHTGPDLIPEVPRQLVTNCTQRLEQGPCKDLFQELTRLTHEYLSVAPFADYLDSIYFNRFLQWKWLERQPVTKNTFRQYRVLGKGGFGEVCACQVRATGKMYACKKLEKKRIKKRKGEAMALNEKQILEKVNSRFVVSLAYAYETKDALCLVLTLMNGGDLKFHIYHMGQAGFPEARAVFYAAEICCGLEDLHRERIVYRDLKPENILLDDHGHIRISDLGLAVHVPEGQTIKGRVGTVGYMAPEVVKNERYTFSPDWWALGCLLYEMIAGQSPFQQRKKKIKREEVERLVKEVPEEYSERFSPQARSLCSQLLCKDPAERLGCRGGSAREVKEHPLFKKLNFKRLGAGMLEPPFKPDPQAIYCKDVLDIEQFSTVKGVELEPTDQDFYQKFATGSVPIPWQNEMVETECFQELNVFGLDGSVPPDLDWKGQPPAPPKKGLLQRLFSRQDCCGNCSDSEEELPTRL
Nature of the assay: GRK6 assay, IC50 determination (8-point concentration-response). Type of assay: biochemical. Conditions: Series 1 (Table 11); 20 nM GRK6, ATP 12 μM (Km), Peptide 216 1 μM, incubation 7 h. The method, then: The following assay conditions were used.
Buffer: 50 mM TRIS-HCl, pH 7.5, 5 mM MgCl2, 2 mM DTT, 0.01% Triton X-100, 10 μM Na3VO4, 10 μM b-GP, 1% DMSO
Enzyme: 20 nM GRK6, recombinant full-length GST-tagged human protein
Peptide substrate (Peptide 216): 1 μM
One hundred two compounds (1-1-1-102) were further characterized by determining IC50 values in a GRK6 assay. This screen has been previously described in WO 2013/063458, which is incorporated by reference in its entirety herein. Briefly, the following activities were performed: 8-point concentration-response determinations in singlicate wells (top concentration=60 μM, 3-fold dilution steps); Repeat tests for QC failed or inconclusive compounds; and Repeat tests (titrate down) for compounds with >50% inhibition at all tested concentrations.
Twelve compounds (2-1-2-12) were further characterized by determining the IC50 values in a GRK6 assay. This screen has been previously described in WO 2013/063458, which is incorporated by reference in its entirety herein. Specific activities were performed as described above (Example 18).
Thirty-six compounds (3-1-3-36) were further characterized by determining the IC50 values in a GRK6 assay. This screen has been previously described in WO 2013/063458, which is incorporated by reference in its entirety herein. Specific activities were performed as described above (Example 18).
Fifty-four compounds (4-1-4-54) were further characterized by determining the IC50 values in a GRK6 assay. This screen has been previously described in WO 2013/063458, which is incorporated by reference in its entirety herein. Specific activities were performed as described above (Example 18).
As for `Cn1ccc2c(-c3ccc(-c4nnc(SCC(=O)O)[nH]4)o3)cccc21` [Compound 1-87], the IC50 (commonly the concentration needed to halve the response being measured) came out at 1800 nM.
Same read-out and setting: for `Cc1cc2cc(-c3ccc(-c4nnc(SCC(=O)O)[nH]4)o3)ccc2n1C` [Compound 1-69] the value was 828 nM; for `O=C(O)CSc1nnc(-c2ccc(-c3ccc4ncccc4c3)o2)[nH]1` [Compound 1-30, 2-((3-(5-(quinolin-6-yl)furan-2-yl)-1H-1,2,4-triazol-5-yl)thio)acetic acid], 315 nM.
Regarding `CCCOc1cccc(-c2ccc(-c3nnc(SCC(=O)O)[nH]3)o2)c1` [Compound 1-34], the IC50 is 341 nM.
Take `Cc1cc(-c2ccc(-c3nnc(SCC(=O)O)[nH]3)o2)ccc1Cl` [Compound 1-42]: the IC50 is 392 nM.
The same measure, in the same setting: for `O=C(O)CSc1nnc(-c2ccc(C(c3ccccc3)c3ccccc3)o2)[nH]1` [Compound 1-101] the value was 6710 nM; for `Cn1cc(-c2ccc(-c3nnc(SCC(=O)O)[nH]3)o2)cn1` [Compound 1-98], 3680 nM.
The same measure, in the same setting: for `COc1ccc(-c2ccc(-c3nnc(SCC(=O)O)[nH]3)o2)cc1OCc1ccccc1` [Compound 1-54] the value was 516 nM.
Regarding `O=C(O)CSc1nnc(-c2ccc(-c3cnc4ccccc4c3)o2)[nH]1` [Compound 1-15], the IC50 was 234 nM.
On to `O=C(O)CSc1nnc(-c2ccc(-c3cccc(OCc4cccc([N+](=O)[O-])c4)c3)o2)[nH]1` [Compound 1-2], for which the IC50 was found to be 126 nM.
Same read-out and setting: the value for `Cn1c2ccccc2c2ccc(-c3ccc(-c4nnc(SCC(=O)O)[nH]4)o3)cc21` [Compound 1-12] was 189 nM.
Same read-out and setting: for `O=C(O)CSc1nnc(-c2ccc(-c3ccc(Br)cc3)o2)[nH]1` [Compound 1-68] the value was 813 nM; for `O=C(O)CSc1nnc(-c2ccc(-c3ccc4[nH]c5ccccc5c4c3)o2)[nH]1` [Compound 1-3], 131 nM; for `O=C(O)CSc1nnc(-c2ccc(-c3cccc(OCc4ccccc4)c3)o2)[nH]1` [Compound 1-23], 273 nM.
As to `O=C(O)CSc1nnc(-c2ccc(-c3ccc(C(=O)NC4CC4)cc3)o2)[nH]1` [Compound 1-75], the IC50 came to 1050 nM.
As for `O=C(O)CSc1nnc(-c2ccc(-c3cc4cc(F)ccc4[nH]3)o2)[nH]1` [Compound 1-57], the IC50 turned out to be 608 nM.
`COc1ccc(-c2ccc(-c3nnc(SCC(=O)O)[nH]3)o2)cc1/C=N/OCc1ccccc1` [Compound 1-66]: the IC50 was 734 nM.
As for `O=C(O)CSc1nnc(-c2ccc(-c3ccc4cc(-c5ccccc5)[nH]c4c3)o2)[nH]1` [Compound 1-22], the IC50 was 269 nM.
In the case of `O=C(O)CSc1nnc(-c2ccc(-c3ccc4[nH]c(-c5ccccc5)cc4c3)o2)[nH]1` [Compound 1-4], the IC50 was 133 nM.
The same measure, in the same setting: the value for `Cn1ccc2cc(-c3ccc(-c4nnc(SCC(=O)O)[nH]4)o3)ccc21` [Compound 1-61] was 635 nM; that for `C#Cc1ccc(-c2nnc(SCC(=O)O)[nH]2)o1` [Compound 1-93] was 2300 nM.
With `O=C(O)CSc1nnc(-c2ccc(-c3cc4ccccc4o3)o2)[nH]1` [Compound 1-32], the IC50 came out at 327 nM.
In the case of `Cc1n[nH]c(C)c1-c1ccc(-c2nnc(SCC(=O)O)[nH]2)o1` [Compound 1-99], the IC50 stood at 4370 nM.
On the same count and under the same terms, for `O=C(O)CSc1nnc(-c2ccc(Br)o2)[nH]1` [Compound 1-97] the value was 3330 nM.
With `Cc1ccc(-c2ccc(-c3nnc(SCC(=O)O)[nH]3)o2)cc1Cl` [Compound 1-37], the IC50 turned out to be 359 nM.
Same read-out and setting: the value for `Cc1ccc(-c2ccc(-c3nnc(SCC(=O)O)[nH]3)o2)cc1[N+](=O)[O-]` [Compound 1-65] was 711 nM.
Still for that read-out and setting: for `CO/N=C/c1cc(-c2ccc(-c3nnc(SCC(=O)O)[nH]3)o2)ccc1OC` [Compound 1-71] the value was 875 nM.
Same read-out and setting: the value for `COc1cccc(-c2ccc(-c3nnc(SCC(=O)O)[nH]3)o2)c1` [Compound 1-44] was 402 nM.
`O=C(O)CSc1nnc(-c2ccc(-c3ccc[nH]3)o2)[nH]1` [Compound 1-80]: the IC50 is 1210 nM.
Still for that read-out and setting: for `O=C(O)CSc1nnc(-c2ccc(-c3cccc(OC(F)(F)F)c3)o2)[nH]1` [Compound 1-21] the value was 265 nM.

Still in this assay, the particulars now being: Series 2 (Table 12); conditions as Example 18.
Consider `COc1ccc2cc(-c3ccc(-c4cc(SCC(=O)O)n[nH]4)s3)ccc2c1` [Compound 2-6], for which the half-maximal inhibitory concentration (IC50) came to 721 nM.
For the compound `O=C(O)CSc1cc(-c2ccccc2)[nH]n1` [Compound 2-12, 2-[(5-phenyl-1H-pyrazol-3-yl)sulfanyl]acetic acid], the IC50 was 18300 nM.
Still for that read-out and setting: for `COc1ccc2cc(C#Cc3ccc(-c4cc(SCC(=O)O)n[nH]4)o3)ccc2c1` [Compound 2-5] the value was 626 nM.

The assay is the same for the next values; noted with them: Series 3 (Table 13); conditions as Example 18.
On to `Fc1cccc(-c2ccc(-c3nnc(SCc4nnn[nH]4)[nH]3)o2)c1F` [Compound 3-26], for which the IC50 came to 5520 nM.
Same read-out and setting: the value for `CS(=O)(=O)Nc1ccc(-c2ccc(-c3nnc(SCc4nnn[nH]4)[nH]3)o2)cc1` [Compound 3-21] was 3710 nM.
For the compound `c1cnc2ccc(-c3ccc(-c4nnc(SCc5nnn[nH]5)[nH]4)o3)cc2c1` [Compound 3-3], the IC50 stood at 667 nM.
In the case of `c1ccc(-c2cccc(-c3ccc(-c4nnc(SCc5nnn[nH]5)[nH]4)o3)c2)cc1` [Compound 3-5], the IC50 was 900 nM.
Take `Cc1cccc(-c2nnc(SCc3nnn[nH]3)[nH]2)c1` [Compound 3-35, 5-(((5-(m-tolyl)-1H-1,2,4-triazol-3-yl)thio)methyl)-1H-tetrazole]: the IC50 was found to be 16900 nM.
On to `COc1cc(Cl)cc(-c2cc(-c3nnc(SCc4nnn[nH]4)[nH]3)cc([N+](=O)[O-])c2)c1` [Compound 3-7], for which the IC50 is 1210 nM.
In the case of `N#Cc1ccc(-c2ccc(-c3nnc(SCc4nnn[nH]4)[nH]3)o2)cc1` [Compound 3-33], the IC50 is 8910 nM.
As to `c1ccc2ncc(-c3ccc(-c4nnc(SCc5nnn[nH]5)[nH]4)o3)cc2c1` [Compound 3-6], the half-inhibitory concentration (IC50) turned out to be 1100 nM.
With `Fc1cc(F)cc(-c2ccc(-c3nnc(SCc4nnn[nH]4)[nH]3)o2)c1` [Compound 3-18], the IC50 amounted to 3310 nM.
Turning to `FC(F)(F)c1cc(-c2ccc(-c3nnc(SCc4nnn[nH]4)[nH]3)o2)cc2cccnc12` [Compound 3-4], the IC50 is 881 nM.
On the same count and under the same terms, the value for `CN(C)S(=O)(=O)c1cccc(-c2ccc(-c3nnc(SCc4nnn[nH]4)[nH]3)o2)c1` [Compound 3-34] was 9090 nM; that for `Fc1ccc(-c2ccc(-c3nnc(SCc4nnn[nH]4)[nH]3)o2)cc1F` [Compound 3-29] was 6900 nM; that for `c1cnc2c(-c3ccc(-c4nnc(SCc5nnn[nH]5)[nH]4)o3)cccc2c1` [Compound 3-14] was 2340 nM.

The same assay, now with this note: Series 4 (Table 14); conditions as Example 18.
On to `O=C(O)CSc1nnc(-c2cnn(-c3ccccc3)c2)[nH]1` [Compound 4-3], for which the IC50 was found to be 1010 nM.
With `O=C(O)CSc1nnc(-c2ccc(N3CCOCC3)nc2)[nH]1` [Compound 4-22], the IC50 stood at 11300 nM.
On the same count and under the same terms, for `O=C(O)CSc1nnc(-c2cccn2S(=O)(=O)c2ccccc2)[nH]1` [Compound 4-44] the value was more than 100000 nM; for `Cc1ncc(-c2nnc(SCC(=O)O)[nH]2)cn1` [Compound 4-30], 27800 nM.
With `Cc1nc(C)c(-c2nnc(SCC(=O)O)[nH]2)s1` [Compound 4-43], the IC50 was more than 100000 nM.
Same read-out and setting: for `COc1ccc(-c2nnc(SCC(=O)O)[nH]2)cn1` [Compound 4-26] the value was 13000 nM; for `Cc1c(-c2nnc(SCC(=O)O)[nH]2)cnn1C` [Compound 4-38], 95400 nM.
For the compound `Cc1nc[nH]c1-c1nnc(SCC(=O)O)[nH]1` [Compound 4-50], the IC50 was more than 100000 nM.
The same measure, in the same setting: the value for `O=C(O)CSc1nnc(-c2cncc(Br)c2)[nH]1` [Compound 4-12] was 4110 nM; that for `Nc1ncc(-c2nnc(SCC(=O)O)[nH]2)cn1` [Compound 4-21] was 9610 nM; that for `O=C(O)CSc1nnc(-c2ccc3cccnc3n2)[nH]1` [Compound 4-45] was more than 86000 nM.
As for `Cc1csc2sc(-c3nnc(SCC(=O)O)[nH]3)c(C)c12` [Compound 4-29], the half-maximal inhibitory concentration (IC50) was determined as 27300 nM.
Take `Cn1nc(C(F)(F)F)cc1-c1ccc(-c2nnc(SCC(=O)O)[nH]2)s1` [Compound 4-18]: the IC50 is 7410 nM.
Turning to `O=C(O)CSc1nnc(-c2cccnc2N2CCOCC2)[nH]1` [Compound 4-41], the IC50 was more than 100000 nM.
As to `COc1ccc2cc(-c3[nH]nc(SCC(=O)O)c3Br)ccc2c1` [Compound 4-53], the IC50 is more than 100000 nM.
The same measure, in the same setting: the value for `O=C(O)CSc1nnc(-c2cc3cccc4c3n(c2=O)CC4)[nH]1` [Compound 4-42] was more than 100000 nM; that for `O=C(O)CSc1nnc(-c2csnn2)[nH]1` [Compound 4-28] was 22300 nM.
In the case of `O=C(O)CSc1nnc(-c2ccc(Cl)cn2)[nH]1` [Compound 4-33], the IC50 is 35300 nM.
On the same count and under the same terms, the value for `O=C(O)CSc1nnc(-c2ccc3ccccc3n2)[nH]1` [Compound 4-25] was 13000 nM; that for `Cc1nc(-c2nnc(SCC(=O)O)[nH]2)c2ccccn12` [Compound 4-46] was more than 80000 nM.
